Where “and” joins values, the source holds several entries; their conditions need not be identical. Equal entries are not always repeated.
What was measured:
[1] = Carbamazepine and carbamazepine-10,11 epoxide concentrations in saliva of patients treated with carbamazepine (UHPLC-DAD after deproteinization); type: in vivo, human
Description: The chromatographic analysis was performed with a Nexer XR UHPLC (Ultra High Performance Liquid Chromatography) liquid chromatograph (Schimadzu, Kyoto, Japan), equipped with a SPD-M30A UV-Vis detector with a diode array and a highly sensitive measuring cell SPD-M30A (85 mm), CBM-20 Alite control system, LC-30AD pump, SIL-30AC autosampler, and CTO-20AC thermostat (Shimadzu, Kyoto, Japan). The compounds were separated using a Luna Omega 1.6 µm Polar C18 (LC Column 50 × 2.1 mm ID) with pre-columns (UHPLC Fully Porous Polar C18, 2.1 mm ID). The compounds were eluted from the column at 35 °C with a mobile phase consisting of water with added formic acid and triethylamine (TEA) (solvent A, pH 4.2) and acetonitrile (solvent B) at a flow of 1 mL/min.
The saliva samples were thawed, centrifuged, and then 200 μL of test material was collected and placed in plastic tubes. A 1% formic acid solution in acetonitrile (600 µL) was added to each of them, mixed with a vortex, shaken (laboratory shaker 358 S, Elpin, Poland) for about 10 min, and centrifuged for 5 min at 8000 rpm. The supernatant was transferred to glass tubes and evaporated. The dry residue was dissolved in 100 μL of an acetonitrile/water mixture with formic acid (1:10), and 10 μL was injected into the chromatographic column.
The usefulness of the method was determined by examining the saliva samples of 20 patients treated with carbamazepine preparations. They were collected from patients of the Nervous and Mentally Ill Hospital in Starogard Gdański (Poland). The study protocol was approved by the ethical committee of the Medical University of Gdansk, Poland (NKBBN/139/2016). Saliva was taken using Salivettes about 2 h after the administration of carbamazepine. The Salivette was placed in a test tube and centrifuged, and the obtained filtrate was frozen at −21 °C and stored until analysis. To perform the analyses, the samples were thawed, centrifuged, and 200 μL of liquid taken. Then, 50 μL of IS solution (10 μg/mL) was added and the procedure described in Section 2.4 was followed.

[2] = Stability of extracts kept in the autosampler at 15 °C for 72 h; type: physicochemical; conditions: extracts in autosampler at 15 °C for 72 h
Description: The stability of the analytes was also determined during their storage in an autosampler at 15 °C for 72 h. For this purpose, five samples of each concentration were extracted and chromatographed. After 72 h, the samples were then chromatographed again alongside a freshly prepared calibration curve.
(§1) The compounds whose concentration decreased by less than 15% under the given storage conditions were considered to be stable.

[3] = design: method as in PMID 29403934, PMID 23288091, PMID 29957667; conditions: cited from earlier work
[4] = Stability of analytes in spiked saliva stored in a fridge at 8 °C; type: in vitro ADME, human; conditions: for stability under the tested conditions: saliva at 8 °C, freeze–thaw at −21 °C, autosampler 15 °C 72 h, 30, 2000, 3750 ng/mL, stable = decrease less than 15%; for Difference (%): spiked saliva stored in a fridge at 8 °C
Description: The stability of the analytes was tested for three concentrations (low QC, medium QC, and high QC). The stability of the analytes was determined both in the matrix during storage at 8 °C and in a freeze–thaw test, during which spiked saliva samples were stored at −21 °C. […] The remainder of the sample was placed back in the refrigerator or frozen and analyzed in the following days. The compounds whose concentration decreased by less than 15% under the given storage conditions were considered to be stable.

[5] = Stability of analytes in spiked saliva, freeze–thaw test at −21 °C; type: in vitro ADME, human; conditions: freeze–thaw cycles at −21 °C
Description: The stability of the analytes was tested for three concentrations (low QC, medium QC, and high QC). The stability of the analytes was determined both in the matrix during storage at 8 °C and in a freeze–thaw test, during which spiked saliva samples were stored at −21 °C. For each concentration of carbamazepine and metabolite, three 800 μL saliva samples were prepared in plastic tubes, spiked with an appropriate volume of analytes, and mixed. Then, 200 μL of saliva was taken from each sample, IS added, extracted, and chromatographed according to the procedures described in Section 2.4 and Section 2.5. The remainder of the sample was placed back in the refrigerator or frozen and analyzed in the following days.
as §1

mean concentration in saliva ([1]; female, human, in vivo) | determined concentrations in patient saliva, range ([1]; human, in vivo) | mean concentration in saliva ([1]; male, human, in vivo) | highest concentration reduction ([4]; 30 ng/mL in saliva samples stored at 8 °C) | Compound | mean concentration in saliva ([1]; female patients) | mean concentration in saliva ([1]; male patients) | Carbamazepine Concentration ([1]; saliva of individual patients, about 2 h after administration of carbamazepine, dose 400-1800 mg/day) | Difference (%) ([2]; 30 ng/mL) | Difference (%) ([2]; 2000 ng/mL) | Difference (%) ([2]; 3750 ng/mL) | half-life ([3]; after a single administration) | excreted in the urine [3] | stability under the tested conditions [4] | Difference (%) ([4]; 30 ng/mL) | Difference (%) ([4]; 2000 ng/mL) | Difference (%) ([4]; 3750 ng/mL) | Difference (%) ([5]; 30 ng/mL) | Difference (%) ([5]; 2000 ng/mL) | Difference (%) ([5]; 3750 ng/mL)
– | – | – | – | NC(=O)N1c2ccccc2C=Cc2ccccc21 [Carbamazepine, carbamazepine] | 967 ng/mL | 1882 ng/mL | 344.7 ng/mL and 690.7 ng/mL and 1285.1 ng/mL and 464.0 ng/mL and 282.2 ng/mL and 472.9 ng/mL and 2456.8 ng/mL and 1668.1 ng/mL and 613.5 ng/mL and 784.3 ng/mL and 1119.9 ng/mL and 607.6 ng/mL and 1198.2 ng/mL and 1192.3 ng/mL and 1817.8 ng/mL and 4891.0 ng/mL and 4839.8 ng/mL and 1165.7 ng/mL and 262.2 ng/mL and 2334.2 ng/mL | −0.30% | −1.12% | −1.72% | 36 h | 72% | stable | −3.91% | −2.53% | −1.93% | −2.25% | −2.16% | −1.44%
249 ng/mL | 120 to 664 ng/mL | 299 ng/mL | 6% | NC(=O)N1c2ccccc2C2OC2c2ccccc21 (centres unmarked) [Carbamazepine-10,11 epoxide, carbamazepine-10,11 epoxide] | – | – | – | −3.64% | −2.3% | 0.38% | – | – | stable | −6.23% | −3.56% | −2.75% | −2.45% | −1.92% | −0.48%
